Experimental data taken from paper PMC2364081, “Antagonists of retinoic acid receptors (RARs) are potent growth inhibitors of prostate carcinoma cells” (British Journal of Cancer, 2001).

Key:
[1] = molecular target: T1, RARα (Homo sapiens, UniProt P10276); assay: Binding to baculovirus-expressed RARα; design: made in house; details: baculovirus-expressed receptor
T1 sequence (P10276 1-462): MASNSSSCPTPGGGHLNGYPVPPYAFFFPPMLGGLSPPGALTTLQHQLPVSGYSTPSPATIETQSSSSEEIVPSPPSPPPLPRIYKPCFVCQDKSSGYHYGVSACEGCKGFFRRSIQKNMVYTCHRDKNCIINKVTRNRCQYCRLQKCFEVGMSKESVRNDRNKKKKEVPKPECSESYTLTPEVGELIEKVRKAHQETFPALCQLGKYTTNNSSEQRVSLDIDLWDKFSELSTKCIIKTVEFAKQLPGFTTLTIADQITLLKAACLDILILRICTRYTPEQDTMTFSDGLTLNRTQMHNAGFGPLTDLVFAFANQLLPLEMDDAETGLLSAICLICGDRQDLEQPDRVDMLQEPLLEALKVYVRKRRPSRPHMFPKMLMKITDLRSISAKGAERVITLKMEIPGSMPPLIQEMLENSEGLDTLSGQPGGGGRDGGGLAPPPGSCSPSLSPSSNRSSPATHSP
Text: (§1) Prostate cancer is one of the most common cancers in European and American males and has a high mortality rate (Landis et al, 1998; Rosenthal, 1998). Early disease is managed conservatively in Europe although in selected patients surgery is curative. In advanced disease, androgen ablation can produce symptomatic improvement, but the tumour often re-emerges in an androgen- independent and incurable form. One proposed treatment for androgen-independent prostate carcinoma is differentiation ther- apy, in which agents such as all-trans-retinoic acid (ATRA), 9-cis- retinoic acid and 1, 25-dihydroxyvitamin D3 (D3 ) are used to induce growth arrest, differentiation and sometimes apoptosis of the tumour cells (Liang et al, 1999; de Vos et al, 1997; Skowronski et al, 1994; Hedlund et al, 1997). ATRA and synthetic analogues exert their biological effects by binding to two families of retinoid receptors, […]. These are ligand-dependent transcription factors of the steroid/thyroid hormone nuclear receptor superfamily (Chambon 1994; Boehm et al, 1995). Activated RARs bind to retinoic acid-responsive elements (RAREs) in the promoters of genes and thus regulate gene expression. They also antagonize the activity of the tran- scription factor AP1 and thereby down-regulate the expression of some AP1-activated genes (Nagpal et al, 1995). One approach to unravelling the contributions of RAR sub-types to these actions has been the development of synthetic retinoids with selective activities at individual RARs and RXRs. For example, the diaryl- acetylenic retinoids allow separation of transactivation and AP1 antagonism functions at RAR (Nagpal et al, 1995). Recently, compounds that are selective for particular RAR sub-types have been synthesized: these include both agonists and antagonists (Chandraratna, 1995; Teng et al, 1999; Johnson et al, 1999). The functional selectivity of these compounds may open the way to achieving differentiation or apoptosis of tumour cells with minimal systemic side effects (Chandraratna, 1995). Cell lines that are commonly used in the evaluation of investiga- tional agents for prostate cancer include LNCaP, DU-145 and PC- 3. […] These lines are relatively insensitive to growth inhibition and induction of apoptosis by ATRA and by synthetic agonists. […] Fenretinide (4HPR) induces apoptosis of LNCaP and of PC-3 cells at 1-5 M and 25 µM, respectively (Pienta et al, 1993; Heish and Wu, 1997). Pfahl and colleagues examined the growth inhibitory effects of a panel of receptor-selective retinoids against DU145 and PC-3 cells and achieved complete growth inhibition and induction of apoptosis between 1 M and 10 M (Lu et al, 1999). […] Antagonists of retinoic acid receptors (RARs) are potent growth inhibitors of prostate carcinoma cells LA Hammond1 , CH Van Krinks2 , J Durham2 , SE Tomkins2 , RD Burnett3 , EL Jones1 , RAS Chandraratna3 and G Brown2 Divisions of 1 Cancer Studies and of 2 Immunity and Infection, University of Birmingham Medical School, Edgbaston, Birmingham B15 2TT, UK and 3 Retinoid Research, Allergan Inc., Irvine, California, USA Summary Novel synthetic antagonists of retinoic acid receptors (RARs) have been developed. To avoid interference by serum retinoids when testing these compounds, we established serum-free grown sub-lines (>3 years) of the prostate carcinoma lines LNCaP, PC3 and DU145. […] A component(s) of serum and of LNCaP-conditioned medium diminishes the activity of antagonists: this factor is not the most likely candidates IGF-1 and EGF. In vitro studies of RAR antagonists together with data from RAR-null mice lead to the hypothesis that RAR-regulated gene transcription is necessary for the survival and maintenance of prostate epithelium. […]

[2] = molecular target: T2, RARβ (Homo sapiens, UniProt P10826); assay: Binding to baculovirus-expressed RARβ; design: made in house; details: baculovirus-expressed receptor
T2 sequence (P10826 1-455): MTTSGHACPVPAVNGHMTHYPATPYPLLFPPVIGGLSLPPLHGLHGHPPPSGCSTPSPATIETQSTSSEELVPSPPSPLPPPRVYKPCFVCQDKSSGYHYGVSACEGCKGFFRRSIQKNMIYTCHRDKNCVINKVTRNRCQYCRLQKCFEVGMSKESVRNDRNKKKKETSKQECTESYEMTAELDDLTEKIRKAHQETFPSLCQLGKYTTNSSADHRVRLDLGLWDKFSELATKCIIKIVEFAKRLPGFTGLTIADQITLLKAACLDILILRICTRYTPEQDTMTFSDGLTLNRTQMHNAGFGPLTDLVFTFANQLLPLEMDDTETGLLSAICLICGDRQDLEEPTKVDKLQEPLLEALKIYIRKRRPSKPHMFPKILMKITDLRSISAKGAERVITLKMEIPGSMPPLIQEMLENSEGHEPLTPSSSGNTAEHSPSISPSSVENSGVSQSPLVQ
Text: as §1

[3] = molecular target: T3, RARγ (Homo sapiens, UniProt P13631); assay: Binding to baculovirus-expressed RARγ; design: made in house; details: baculovirus-expressed receptor
T3 sequence (P13631 1-454): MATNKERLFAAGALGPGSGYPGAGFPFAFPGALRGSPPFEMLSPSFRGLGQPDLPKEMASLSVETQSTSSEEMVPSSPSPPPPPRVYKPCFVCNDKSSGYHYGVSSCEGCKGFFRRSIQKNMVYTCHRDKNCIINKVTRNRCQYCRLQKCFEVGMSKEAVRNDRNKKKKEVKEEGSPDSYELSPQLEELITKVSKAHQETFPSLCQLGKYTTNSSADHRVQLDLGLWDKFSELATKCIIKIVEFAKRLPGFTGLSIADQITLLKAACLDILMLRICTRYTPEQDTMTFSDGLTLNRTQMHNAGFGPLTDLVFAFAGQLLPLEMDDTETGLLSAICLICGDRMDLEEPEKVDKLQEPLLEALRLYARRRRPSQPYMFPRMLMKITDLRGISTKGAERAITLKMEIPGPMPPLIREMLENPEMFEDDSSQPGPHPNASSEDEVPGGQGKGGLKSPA
Text: as §1

[4] = molecular target: T1, RARα; assay: Transactivation by RARα in doubly transfected CV-1 cells (MTV-TREp-LUC reporter); type: cell-based; design: expressed in transfected cells; host or cells: CV-1 cells
Text: (§2) Prostate cancer is one of the most common cancers in European and American males and has a high mortality rate (Landis et al, 1998; Rosenthal, 1998). Early disease is managed conservatively in Europe although in selected patients surgery is curative. In advanced disease, androgen ablation can produce symptomatic improvement, but the tumour often re-emerges in an androgen- independent and incurable form. One proposed treatment for androgen-independent prostate carcinoma is differentiation ther- apy, in which agents such as all-trans-retinoic acid (ATRA), 9-cis- retinoic acid and 1, 25-dihydroxyvitamin D3 (D3 ) are used to induce growth arrest, differentiation and sometimes apoptosis of the tumour cells (Liang et al, 1999; de Vos et al, 1997; Skowronski et al, 1994; Hedlund et al, 1997). ATRA and synthetic analogues exert their biological effects by binding to two families of retinoid receptors, the RARs (RAR, RAR and RAR) and the RXRs (RXR, RXR and RXR). These are ligand-dependent transcription factors of the steroid/thyroid hormone nuclear receptor superfamily (Chambon 1994; Boehm et al, 1995). Activated RARs bind to retinoic acid-responsive elements (RAREs) in the promoters of genes and thus regulate gene expression. They also antagonize the activity of the tran- scription factor AP1 and thereby down-regulate the expression of some AP1-activated genes (Nagpal et al, 1995). One approach to unravelling the contributions of RAR sub-types to these actions has been the development of synthetic retinoids with selective activities at individual RARs and RXRs. For example, the diaryl- acetylenic retinoids allow separation of transactivation and AP1 antagonism functions at RAR (Nagpal et al, 1995). Recently, compounds that are selective for particular RAR sub-types have been synthesized: these include both agonists and antagonists (Chandraratna, 1995; Teng et al, 1999; Johnson et al, 1999). The functional selectivity of these compounds may open the way to achieving differentiation or apoptosis of tumour cells with minimal systemic side effects (Chandraratna, 1995). […]

[5] = molecular target: T2, RARβ; assay: Transactivation by RARβ in doubly transfected CV-1 cells (MTV-TREp-LUC reporter); type: cell-based; design: expressed in transfected cells; host or cells: CV-1 cells; key to EC50 transactivation RARβ: NA: inactive; WA: weak partial agonist
Text: as §2

[6] = molecular target: T3, RARγ; assay: Transactivation by RARγ in doubly transfected CV-1 cells (MTV-TREp-LUC reporter); type: cell-based; design: expressed in transfected cells; host or cells: CV-1 cells; key to EC50 transactivation RARγ: NA: inactive; WA: weak partial agonist
Text: as §2, with “1995).” for “1995). One approach to unravelling the contributions of RAR sub-types to these actions has been the development of synthetic retinoids with selective activities at individual RARs and RXRs. For example, the diaryl- acetylenic retinoids allow separation of transactivation and AP1 antagonism functions at RAR (Nagpal et al, 1995). Recently, compounds that are selective for particular RAR sub-types have been synthesized: these include both agonists and antagonists (Chandraratna, 1995; Teng et al, 1999; Johnson et al, 1999). The functional selectivity of these compounds may open the way to achieving differentiation or apoptosis of tumour cells with minimal systemic side effects (Chandraratna, 1995).”

[7] = test system: LNCaP cells; details: ref Pienta et al, 1993; Heish and Wu, 1997; cited from earlier work
[8] = test system: PC-3 cells; design: method as in Pienta et al, 1993; Heish and Wu, 1997; details: ref Pienta et al, 1993; Heish and Wu, 1997; cited from earlier work
[9] = test system: LNCaP ITS+ cells; assay: Plate colony formation (clonal proliferation) assay, serum-free (ITS+)-grown LNCaP; type: cell-based, human
Text: as §1

[10] = test system: PC3 ITS+ cells; assay: Plate colony formation assay, serum-free (ITS+)-grown PC3; type: cell-based, human; details: 14 days
Text: as §2

[11] = test system: DU145 ITS+ cells; assay: Plate colony formation assay, serum-free (ITS+)-grown DU145; type: cell-based, human; details: 14 days
Text: as §2

[12] = test system: LNCaP, PC3 and DU145 cells; assay: Plate colony formation assay, stated over the three serum-free grown lines; type: cell-based, human; details: stated over all three serum-free grown lines; read-out: concentration inhibiting colony formation by 50% (IC50)
Text: as §1

Compound	Kd [1]	Kd [2]	Kd [3]	EC50 [4]	other results
CC1=C(/C=C/C(C)=C/C=C/C(C)=C/C(=O)Nc2ccc(O)cc2)C(C)(C)CCC1 [Fenretinide]	–	–	–	–	concentration inducing apoptosis [7]: 1 to 5 µM; concentration inducing apoptosis [8]: 25 µM
EGF: Epidermal growth factor (R & D, Abingdon, UK) (NSDSECPLSHDGYCLHDGVCMYIEALDKYACNCVVGYIGERCQYRDLKWWELR; UniProt P01133 971-1023, looked up)	–	–	–	–	reversal of the inhibition of colony formation by 100 nM AGN194310 ([9]; EGF at 1, 10 and 20 ng/ml): did not reverse

Continued, in another order:

Kd [1]	Kd [2]	Kd [3]	EC50 [4]	Compound	other results
40 nM	> 5000 nM	> 5000 nM	130 nM	CC(C)N1CCC(C)(C)c2cc(C(=O)Nc3ccc(C(=O)O)c(F)c3)c(O)cc21 [AGN195153]	EC50 transactivation RARβ [5]: WA; EC50 transactivation RARγ [6]: WA
300 nM	6 nM	70 nM	–	Cc1ccc(C2=CCC(C)(C)c3ccc(N=Nc4ccc(C(=O)O)cc4F)cc32)cc1 [AGN194431]	IC50 ([9]; LNCaP, serum-free (ITS+), 14 days): 99 nM; IC50 [10]: 104 nM; IC50 [11]: 88 nM; IC50 [12]: ~100 nM
616 nM	41 nM	57 nM	> 1000 nM	CC1(C)CCSc2ccc(C#Cc3ccc(C(=O)O)cn3)cc21 [AGN190299]	EC50 [5]: 18 nM; EC50 [6]: 42 nM
